Consider ten compounds from patent publication US20250136583A1, “NOVEL SALT FORMS OF ISOCHROMAN-IMIDAZOLE STRUCTURED ALPHA-2A ADRENOCEPTOR AGONIST” (ORION CORPORATION, priority 2022, published 2025).

Structures can show the parent of a compound that is named as a salt.

Data set [1] in a line: Physical stability of the salts (storage at elevated temperature and relative humidity, re-analysis by XRPD). Particulars: for Form after stability / Physical stability: solids exposed for 2 or 3 weeks at 40° C. and 70-80% relative humidity; for Form after stability: XRPD; for Physical stability: re-analyzed by XRPD. Type of data set: physicochemical. The method, then:
XRPD measurements were performed with the X-ray powder diffractometer Bruker D8 Advance at room temperature, using a copper filled X-ray tube (40 kV×40 mA) as the X-ray source, CuKα (λ=1.5418 Å), a 0.6 mm divergence slit, 2.5° Soller slits on both the primary and secondary beams and the 1-dimensional LynxEye detector (with aperture angle of 2.91593°). Data collection was done in the range of 3.8-33° 2θ with 0.02° increments, at a scan speed of 0.3°/s.
A stability test was carried out for all crystalline salt forms resulted from the salt screen by exposing the solids for 2 or 3 weeks at 40° C. and 70-80% relative humidity. After exposure, the solids were re-analyzed by XRPD, followed by physical stability assessment.

The nature of data set [2]: Chemical stability of the salts (stress at 60° C. and 75% relative humidity, purity by UHPLC). The conditions noted are these: for Purity (%) of 1 day stress samples / Difference between reference and 1 day stressed sample: 1 day at 60° C. and 75% relative humidity; for Purity (%) of 1 day stress samples / Purity (%) of 14 day stress samples / Purity (%) of reference: UHPLC; for Difference between reference and 1 day stressed sample / Difference between reference and 14 day stressed sample: purity difference, in %; for Purity (%) of 14 day stress samples / Difference between reference and 14 day stressed sample: 14 days at 60° C. and 75% relative humidity; for Purity (%) of reference: unstressed sample; for Chemical stability (in words): summary statement. In kind it is physicochemical. The method, then: The purity analyses were performed using Agilent UHPLC equipment with PDA/DAD detector at 210 nm wavelength and reverse phase liquid chromatography column Acquity UPLC HSS T3, 100×3.0 mm, 1.8 μm (Waters). The chromatography was performed with gradient run using acetonitrile and phosphate buffer (pH 3.0) as eluents.
The chemical stability of various salts of compound (I) was determined by stressing the salts for 1 and 14 days at 60° C. and 75% relative humidity. The unstressed sample was used as an reference. The purity of the samples were analyzed using UHPLC, and the purity difference between the stressed and reference was calculated.

The target in the next data set is T1, alpha2A receptor (Homo sapiens, UniProt P08913).
T1 sequence (P08913 1-465): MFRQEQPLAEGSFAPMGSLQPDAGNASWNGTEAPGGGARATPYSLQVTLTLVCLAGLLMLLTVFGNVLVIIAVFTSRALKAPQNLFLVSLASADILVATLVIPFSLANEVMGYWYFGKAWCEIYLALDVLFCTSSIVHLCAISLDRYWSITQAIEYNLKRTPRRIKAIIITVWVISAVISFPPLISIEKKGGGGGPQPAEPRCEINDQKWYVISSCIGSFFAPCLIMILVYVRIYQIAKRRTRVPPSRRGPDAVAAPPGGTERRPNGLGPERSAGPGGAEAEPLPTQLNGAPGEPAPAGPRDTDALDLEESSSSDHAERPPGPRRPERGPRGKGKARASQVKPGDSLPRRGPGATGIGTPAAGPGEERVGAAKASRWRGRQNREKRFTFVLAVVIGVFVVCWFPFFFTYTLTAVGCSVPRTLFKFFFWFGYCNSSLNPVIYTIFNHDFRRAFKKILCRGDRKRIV
The conditions noted are these: background, WO 2013/150173; cited from earlier work.

Where [3] appears, read: listed as Napthalene-1,5-disulfonic acid salt.

Consider `COc1cccc2c1CCOC2C1=NCCN1` (stereo not shown) [Malonic acid salt Form 1, 2-(5-methoxyisochroman-1-yl)-4,5-dihydro-1H-imidazole], for which, in data set [1], the Form after stability result is reported as “Form 1” and the Physical stability entry is reported as “Stable”. Also, the Physical stability entry in data set [1] (listed as malonic acid) was “remained stable”. Also, in data set [2], the “Purity (%) of 1 day stress samples” value amounted to 96.6%; the “Difference between reference and 1 day stressed sample” value is 1.5; the “Purity (%) of 14 day stress samples” value is given as 72.7%; the “Difference between reference and 14 day stressed sample” value worked out at 25.5. Also, in data set [2], the “Purity (%) of reference” value is on record as 98.2%.

As for `COc1cccc2c1CCOC2C1=NCCN1` (stereo not shown) [Hydrochloric acid salt Form 1, 2-(5-methoxyisochroman-1-yl)-4,5-dihydro-1H-imidazole], in data set [1], the Form after stability entry is reported as “Form 1” and the Physical stability entry is on record as “Stable”. In data set [1] (listed as hydrochloric acid), the Physical stability entry is “remained stable”. In addition, in data set [2], the “Purity (%) of 1 day stress samples” value is 89.8%; the “Difference between reference and 1 day stressed sample” value is reported as 8.7; the “Purity (%) of 14 day stress samples” value is on record as 69.0%; the “Difference between reference and 14 day stressed sample” value was found to be 29.5. The “Purity (%) of reference” value in data set [2] was 98.6%.

For the compound `COc1cccc2c1CCOC2C1=NCCN1` (stereo not shown) [Naphthalene-1,5-disulfonic acid salt Form 1] [2-(5-methoxyisochroman-1-yl)-4,5-dihydro-1H-imidazole], in data set [1], the Form after stability result is “Form 1” and the Physical stability result is on record as “Stable”. The Physical stability result in data set [1] (listed as naphthalene-1,5-disulfonic acid) is listed as “remained stable”. In data set [2] (setting [3]), the “Purity (%) of 1 day stress samples” value is listed as 96.1%; the “Difference between reference and 1 day stressed sample” value was determined as 0.2; the “Purity (%) of 14 day stress samples” value was found to be 95.7%; the “Difference between reference and 14 day stressed sample” value was 0.6. For the same compound, the “Purity (%) of reference” value in data set [2] (setting [3]) is on record as 96.3%. In addition, in data set [2], the “Chemical stability (in words)” value is given as “good chemical stability”.

Consider `COc1cccc2c1CCOC2C1=NCCN1` (stereo not shown) [Hydrobromic acid salt Form 1, 2-(5-methoxyisochroman-1-yl)-4,5-dihydro-1H-imidazole], for which, in data set [1], the Form after stability entry was “Form 1” and the Physical stability result was “Stable”. The Physical stability result in data set [1] (listed as hydrobromic acid) is “remained stable”. Besides, in data set [2], the “Purity (%) of 1 day stress samples” value came out at 98.1%; the “Difference between reference and 1 day stressed sample” value was found to be 0.2; the “Purity (%) of 14 day stress samples” value is reported as 98.2%; the “Difference between reference and 14 day stressed sample” value amounted to 0.1. In data set [2], the “Chemical stability (in words)” value is given as “good chemical stability” and the “Purity (%) of reference” value was 98.3%.

Regarding `COc1cccc2c1CCOC2C1=NCCN1` (stereo not shown) [Mucic acid salt Form 1, 2-(5-methoxyisochroman-1-yl)-4,5-dihydro-1H-imidazole], in data set [1], the Form after stability entry is recorded as “Form 1” and the Physical stability entry is reported as “Stable”. In data set [1] (listed as mucic acid), the Physical stability result is recorded as “remained stable”. For the same compound, in data set [2], the “Purity (%) of 1 day stress samples” value is 97.7%; the “Difference between reference and 1 day stressed sample” value worked out at 1.6; the “Purity (%) of 14 day stress samples” value was determined as 35.6%; the “Difference between reference and 14 day stressed sample” value turned out to be 63.6. Besides, the “Purity (%) of reference” value in data set [2] is listed as 99.2%.

`COc1cccc2c1CCOC2C1=NCCN1` (stereo not shown) [Tasipimidine, 2-(5-methoxyisochroman-1-yl)-4,5-dihydro-1H-imidazole]: the “Activity on adrenergic alpha2 receptors, especially alpha2A receptor” value on alpha2A receptor is on record as “agonistic activities”.

As to `COc1cccc2c1CCOC2C1=NCCN1` (stereo not shown) [Maleic acid salt Form 1, 2-(5-methoxyisochroman-1-yl)-4,5-dihydro-1H-imidazole], in data set [1], the Form after stability entry is given as “Form 1” and the Physical stability entry is “Stable”. Also, in data set [1] (listed as maleic acid), the Physical stability entry is on record as “remained stable”. Further, in data set [2], the “Purity (%) of 1 day stress samples” value is given as 64.0%; the “Difference between reference and 1 day stressed sample” value turned out to be 35.7; the “Purity (%) of 14 day stress samples” value came to 33.3%; the “Difference between reference and 14 day stressed sample” value came to 66.4. Further, the “Purity (%) of reference” value in data set [2] is given as 99.6%.

For the compound `COc1cccc2c1CCOC2C1=NCCN1` [L-tartaric acid salt Form 2, 2-(5-methoxyisochroman-1-yl)-4,5-dihydro-1H-imidazole], in data set [1] (40° C., 75% RH for 3 weeks), the “Crystalline form conversion on storage” value is “turned into form 1”. Moreover, in data set [1], the Form after stability result was “Form 1” and the Physical stability result is “Unstable”. Besides, the Form after stability entry in data set [1] (listed as L-tartaric acid (form 2)) was “completely”. In addition, in data set [2], the “Purity (%) of 1 day stress samples” value was 97.5%; the “Difference between reference and 1 day stressed sample” value was 1.0; the “Purity (%) of 14 day stress samples” value stood at 88.3%; the “Difference between reference and 14 day stressed sample” value came out at 10.3. In addition, the “Purity (%) of reference” value in data set [2] is reported as 98.6%.

Regarding `COc1cccc2c1CCOC2C1=NCCN1` (stereo not shown) [Glutaric acid salt Form 1, 2-(5-methoxyisochroman-1-yl)-4,5-dihydro-1H-imidazole], in data set [1], the Form after stability entry is listed as “Form 1” and the Physical stability result is reported as “Stable”. The Physical stability result in data set [1] (listed as glutaric acid) is given as “remained stable”. Also, in data set [2], the “Purity (%) of 1 day stress samples” value worked out at 78.7%; the “Difference between reference and 1 day stressed sample” value worked out at 17.7; the “Purity (%) of 14 day stress samples” value is reported as 2.0%; the “Difference between reference and 14 day stressed sample” value turned out to be 94.4. The “Purity (%) of reference” value in data set [2] is on record as 96.4%.

In the case of `COc1cccc2c1CCOC2C1=NCCN1` (stereo not shown) [Adipic acid salt Form 1, 2-(5-methoxyisochroman-1-yl)-4,5-dihydro-1H-imidazole], in data set [1], the Form after stability result is “Form 1” and the Physical stability result is “Stable”. Further, the Physical stability result in data set [1] (listed as adipic acid) is given as “remained stable”. In data set [2], the “Purity (%) of 1 day stress samples” value worked out at 94.7%; the “Difference between reference and 1 day stressed sample” value is 4.4; the “Purity (%) of 14 day stress samples” value was 2.7%; the “Difference between reference and 14 day stressed sample” value stood at 96.5. For the same compound, the “Purity (%) of reference” value in data set [2] is reported as 99.1%.
